Three molecules from ChEMBL document CHEMBL4837249, “Discovery of Potent Antiallergic Agents Based on an o-Aminopyridinyl Alkynyl Scaffold” (J Med Chem, 2021) can be followed below.

A short description of series [1]: AUC (0 to t) in BALB/c mouse at 2 mg/kg, iv measured up to 24 hrs by LC-MS/MS analysis. The class given is ADME, organism-based. The arrangement: route intravenous, dose 2 mg/kg, time <=24. Conditions: in vivo.
Series [2] can be described thus: Toxicity in anti-DNP IgE sensitized BALB/c mouse assessed as hemorrhage at 40 mg/kg, po. The class given is organism-based. Conditions: in vivo.
In series [3] the target is Tyrosine-protein kinase Lck (Homo sapiens, UniProt P06239). Nature of the series: Inhibition of human full length recombinant LCK by radiometric scintillation counting analysis.
Tyrosine-protein kinase Lck, sequence (P06239 whole entry): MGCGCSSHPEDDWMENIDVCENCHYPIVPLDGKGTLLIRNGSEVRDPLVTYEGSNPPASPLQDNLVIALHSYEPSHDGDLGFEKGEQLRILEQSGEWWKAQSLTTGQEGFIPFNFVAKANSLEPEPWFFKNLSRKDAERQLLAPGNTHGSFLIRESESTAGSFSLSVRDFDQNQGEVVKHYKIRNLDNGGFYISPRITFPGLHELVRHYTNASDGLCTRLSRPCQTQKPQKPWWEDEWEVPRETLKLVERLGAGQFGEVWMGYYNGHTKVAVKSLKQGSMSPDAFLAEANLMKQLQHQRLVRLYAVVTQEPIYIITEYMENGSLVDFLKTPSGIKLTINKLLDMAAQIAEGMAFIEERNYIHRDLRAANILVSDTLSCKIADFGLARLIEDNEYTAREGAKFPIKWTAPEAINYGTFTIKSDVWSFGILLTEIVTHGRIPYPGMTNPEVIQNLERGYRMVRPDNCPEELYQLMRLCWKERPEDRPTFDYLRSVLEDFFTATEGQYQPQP
A short description of series [4]: MRT in BALB/c mouse at 20 mg/kg, po measured up to 24 hrs by LC-MS/MS analysis. It is filed as ADME, organism-based. Conditions: in vivo.
For series [5], the target named is T1, Cytoplasmic tyrosine-protein kinase BMX (Homo sapiens) (UniProt P51813).
T1 sequence (whole entry): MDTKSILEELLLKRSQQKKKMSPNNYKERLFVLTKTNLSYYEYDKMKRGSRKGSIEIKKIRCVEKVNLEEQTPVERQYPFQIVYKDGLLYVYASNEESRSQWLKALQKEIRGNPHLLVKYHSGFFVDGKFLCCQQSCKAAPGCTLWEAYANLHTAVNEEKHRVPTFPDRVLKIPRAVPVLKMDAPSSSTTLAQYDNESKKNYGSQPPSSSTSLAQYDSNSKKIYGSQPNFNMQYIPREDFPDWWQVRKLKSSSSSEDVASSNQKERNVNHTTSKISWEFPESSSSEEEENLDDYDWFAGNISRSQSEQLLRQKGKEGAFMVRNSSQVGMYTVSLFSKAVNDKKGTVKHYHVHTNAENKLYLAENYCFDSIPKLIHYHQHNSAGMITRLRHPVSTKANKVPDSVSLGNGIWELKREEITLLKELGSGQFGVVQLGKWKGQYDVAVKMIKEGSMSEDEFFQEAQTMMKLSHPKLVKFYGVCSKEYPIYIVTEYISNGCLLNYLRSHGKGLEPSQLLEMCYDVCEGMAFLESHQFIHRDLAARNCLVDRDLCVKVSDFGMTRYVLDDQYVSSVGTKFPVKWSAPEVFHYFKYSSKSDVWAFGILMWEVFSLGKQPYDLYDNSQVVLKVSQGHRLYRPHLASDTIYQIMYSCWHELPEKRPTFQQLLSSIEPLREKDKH
Nature of the series: Inhibition of human full length recombinant Bmx at 50 nM by radiometric scintillation counting analysis relative to control.

Series [6] has as its target T2, Tyrosine-protein kinase Tec (Homo sapiens) (UniProt P42680).
T2 sequence (whole entry): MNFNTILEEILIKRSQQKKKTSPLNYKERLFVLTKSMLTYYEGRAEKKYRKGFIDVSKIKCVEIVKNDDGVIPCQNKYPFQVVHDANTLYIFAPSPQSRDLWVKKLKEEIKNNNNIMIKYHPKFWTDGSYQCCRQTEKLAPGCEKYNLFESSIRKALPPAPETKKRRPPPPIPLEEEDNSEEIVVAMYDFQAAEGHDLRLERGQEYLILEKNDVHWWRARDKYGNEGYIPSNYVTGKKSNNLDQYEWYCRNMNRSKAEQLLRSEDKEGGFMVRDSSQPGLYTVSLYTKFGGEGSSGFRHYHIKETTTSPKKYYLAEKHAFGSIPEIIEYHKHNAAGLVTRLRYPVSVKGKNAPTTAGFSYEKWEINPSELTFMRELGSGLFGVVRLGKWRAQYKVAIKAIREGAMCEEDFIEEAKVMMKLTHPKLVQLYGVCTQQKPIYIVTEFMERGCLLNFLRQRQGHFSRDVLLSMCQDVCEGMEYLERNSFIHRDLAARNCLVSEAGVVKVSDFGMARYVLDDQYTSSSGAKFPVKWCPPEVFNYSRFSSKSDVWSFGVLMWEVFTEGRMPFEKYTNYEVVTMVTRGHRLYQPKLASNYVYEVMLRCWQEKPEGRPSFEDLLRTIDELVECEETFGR
Nature of the series: Inhibition of human recombinant Tec (174 to end) at 50 nM by radiometric scintillation counting analysis relative to control.

Series [7] has as its system RBL-2H3. The experiment in a line: Inhibition of p38 MAPK phosphorylation in rat RBL-2H3 cells assessed as inhibition of Fc epsilonRI-mediated signal transduction by Western blot analysis. The class given is cell-based. Conditions: dose 8-200 nM.
For series [8], the target named is Cytoplasmic tyrosine-protein kinase BMX (Homo sapiens, UniProt P51813). Nature of the series: Inhibition of human full length recombinant Bmx by radiometric scintillation counting analysis.
Series [9] can be described thus: MRT in BALB/c mouse at 2 mg/kg, iv measured up to 24 hrs by LC-MS/MS analysis. It is filed as ADME, organism-based. Conditions: in vivo.
The test system of series [10] is RBL-2H3. The experiment in a line: Antiallergic activity against anti-DNP-IgE sensitized rat RBL-2H3 cells assessed as […] of degranulation by measuring beta-hexosaminidase release using P-nitrophenyl-N-acetyl-D-glucosamide as substrate at 0.2 uM measured after 1 hr by microplate reader relative to control. It is filed as functional.
A short description of series [11]: Half life in BALB/c mouse at 20 mg/kg, po measured up to 24 hrs by LC-MS/MS analysis. The class given is ADME, organism-based. Conditions: in vivo.
A short description of series [12]: Volume of distribution at steady state in BALB/c mouse at 2 mg/kg, iv measured up to 24 hrs by LC-MS/MS analysis. The class given is ADME, organism-based. Conditions: in vivo, read-out: Vdss.
The nature of series [13]: Half life in BALB/c mouse at 2 mg/kg, iv measured up to 24 hrs by LC-MS/MS analysis. It is filed as ADME, organism-based. The conditions noted are these: in vivo.
The target in series [14] is Tyrosine-protein kinase CSK (Homo sapiens, UniProt P41240). The experiment in a line: Inhibition of human full length recombinant CSK by radiometric scintillation counting analysis.
Tyrosine-protein kinase CSK, sequence (P41240 whole entry): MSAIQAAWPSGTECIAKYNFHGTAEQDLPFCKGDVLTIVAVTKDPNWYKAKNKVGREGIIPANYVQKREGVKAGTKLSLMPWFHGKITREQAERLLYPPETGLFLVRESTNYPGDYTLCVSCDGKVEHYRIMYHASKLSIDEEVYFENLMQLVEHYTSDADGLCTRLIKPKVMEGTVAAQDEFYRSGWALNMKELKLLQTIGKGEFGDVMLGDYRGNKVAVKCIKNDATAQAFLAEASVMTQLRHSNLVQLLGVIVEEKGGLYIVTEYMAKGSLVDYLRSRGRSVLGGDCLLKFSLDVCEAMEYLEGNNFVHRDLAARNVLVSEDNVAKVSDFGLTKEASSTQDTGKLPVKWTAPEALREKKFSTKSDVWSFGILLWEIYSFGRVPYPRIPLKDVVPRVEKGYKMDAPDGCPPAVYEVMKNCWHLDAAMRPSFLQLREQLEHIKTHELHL
The target in series [15] is 1-phosphatidylinositol 4,5-bisphosphate phosphodiesterase gamma-1 (Rattus norvegicus) (UniProt P10686). Nature of the series: Inhibition of PLCgamma1 phosphorylation in rat RBL-2H3 cells assessed as inhibition of Fc epsilonRI-mediated signal transduction by Western blot analysis. The conditions noted are these: dose 8-200 nM. The class given is cell-based. Background: Immunoblotting shows a protein as a band on a membrane.
1-phosphatidylinositol 4,5-bisphosphate phosphodiesterase gamma-1 (Rattus norvegicus), sequence (P10686 whole entry): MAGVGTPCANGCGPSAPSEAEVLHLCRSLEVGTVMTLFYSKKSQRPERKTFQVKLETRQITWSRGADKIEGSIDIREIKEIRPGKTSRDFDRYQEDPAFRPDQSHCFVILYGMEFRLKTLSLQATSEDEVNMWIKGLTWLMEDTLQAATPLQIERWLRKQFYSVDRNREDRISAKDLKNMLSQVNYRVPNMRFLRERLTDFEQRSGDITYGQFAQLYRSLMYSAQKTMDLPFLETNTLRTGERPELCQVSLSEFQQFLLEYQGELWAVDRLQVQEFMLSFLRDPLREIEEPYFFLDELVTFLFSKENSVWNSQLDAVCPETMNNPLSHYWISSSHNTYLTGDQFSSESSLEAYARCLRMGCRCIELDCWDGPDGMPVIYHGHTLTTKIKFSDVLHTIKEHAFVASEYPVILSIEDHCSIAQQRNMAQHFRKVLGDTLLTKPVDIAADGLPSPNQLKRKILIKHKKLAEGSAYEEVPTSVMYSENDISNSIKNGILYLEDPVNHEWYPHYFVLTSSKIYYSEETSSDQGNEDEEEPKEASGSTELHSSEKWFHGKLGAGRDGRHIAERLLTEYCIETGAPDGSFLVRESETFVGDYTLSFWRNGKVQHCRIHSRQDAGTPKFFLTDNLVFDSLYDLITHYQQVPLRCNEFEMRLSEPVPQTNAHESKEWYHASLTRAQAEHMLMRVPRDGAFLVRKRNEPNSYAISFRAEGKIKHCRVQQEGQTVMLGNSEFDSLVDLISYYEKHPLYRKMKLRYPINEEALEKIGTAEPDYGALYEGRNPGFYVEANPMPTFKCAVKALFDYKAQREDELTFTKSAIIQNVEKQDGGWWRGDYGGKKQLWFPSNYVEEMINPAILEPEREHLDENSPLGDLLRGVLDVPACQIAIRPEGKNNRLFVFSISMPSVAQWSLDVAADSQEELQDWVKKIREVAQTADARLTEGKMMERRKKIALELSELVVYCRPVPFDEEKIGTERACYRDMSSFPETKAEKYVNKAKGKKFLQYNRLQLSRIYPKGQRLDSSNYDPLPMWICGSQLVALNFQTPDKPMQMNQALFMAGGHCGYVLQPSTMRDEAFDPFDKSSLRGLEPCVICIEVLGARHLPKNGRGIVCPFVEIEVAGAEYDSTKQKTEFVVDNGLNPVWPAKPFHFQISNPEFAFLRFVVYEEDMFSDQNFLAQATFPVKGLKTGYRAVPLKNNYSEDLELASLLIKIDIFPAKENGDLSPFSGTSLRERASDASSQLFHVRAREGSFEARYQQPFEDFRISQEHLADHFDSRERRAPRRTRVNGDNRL

Series [16] addresses T2, Tyrosine-protein kinase Tec (Homo sapiens). Nature of the series: Inhibition of human recombinant Tec (174 to end) at 5 nM by radiometric scintillation counting analysis relative to control.
The target in series [17] is RAC-alpha serine/threonine-protein kinase (Homo sapiens) (UniProt P31749). The experiment in a line: Inhibition of human recombinant PKBalpha at 5 nM radiometric scintillation counting analysis relative to control.
RAC-alpha serine/threonine-protein kinase (Homo sapiens), sequence (P31749 whole entry): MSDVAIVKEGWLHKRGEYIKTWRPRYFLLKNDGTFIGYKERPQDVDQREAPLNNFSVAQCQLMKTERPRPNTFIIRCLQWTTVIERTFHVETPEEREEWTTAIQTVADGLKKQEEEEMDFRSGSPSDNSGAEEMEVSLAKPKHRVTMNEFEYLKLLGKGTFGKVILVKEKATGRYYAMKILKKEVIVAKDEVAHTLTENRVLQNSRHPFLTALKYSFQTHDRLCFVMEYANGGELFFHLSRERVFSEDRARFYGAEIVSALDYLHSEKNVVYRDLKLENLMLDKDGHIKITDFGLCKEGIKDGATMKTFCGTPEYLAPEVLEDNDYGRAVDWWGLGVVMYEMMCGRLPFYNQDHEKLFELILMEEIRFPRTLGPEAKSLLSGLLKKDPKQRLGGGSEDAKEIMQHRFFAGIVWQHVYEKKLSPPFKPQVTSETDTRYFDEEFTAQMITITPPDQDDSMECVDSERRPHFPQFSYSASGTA
Series [18] deals with Tyrosine-protein kinase SYK (Homo sapiens) (UniProt P43405). Nature of the series: Inhibition of human full length recombinant Syk at 50 nM by radiometric scintillation counting analysis relative to control.
For series [19], the target named is Mast/stem cell growth factor receptor Kit (Homo sapiens) (UniProt P10721). The experiment in a line: Inhibition of human recombinant c-Kit at 5 nM by radiometric scintillation counting analysis relative to control.
Mast/stem cell growth factor receptor Kit (Homo sapiens), sequence (P10721 whole entry): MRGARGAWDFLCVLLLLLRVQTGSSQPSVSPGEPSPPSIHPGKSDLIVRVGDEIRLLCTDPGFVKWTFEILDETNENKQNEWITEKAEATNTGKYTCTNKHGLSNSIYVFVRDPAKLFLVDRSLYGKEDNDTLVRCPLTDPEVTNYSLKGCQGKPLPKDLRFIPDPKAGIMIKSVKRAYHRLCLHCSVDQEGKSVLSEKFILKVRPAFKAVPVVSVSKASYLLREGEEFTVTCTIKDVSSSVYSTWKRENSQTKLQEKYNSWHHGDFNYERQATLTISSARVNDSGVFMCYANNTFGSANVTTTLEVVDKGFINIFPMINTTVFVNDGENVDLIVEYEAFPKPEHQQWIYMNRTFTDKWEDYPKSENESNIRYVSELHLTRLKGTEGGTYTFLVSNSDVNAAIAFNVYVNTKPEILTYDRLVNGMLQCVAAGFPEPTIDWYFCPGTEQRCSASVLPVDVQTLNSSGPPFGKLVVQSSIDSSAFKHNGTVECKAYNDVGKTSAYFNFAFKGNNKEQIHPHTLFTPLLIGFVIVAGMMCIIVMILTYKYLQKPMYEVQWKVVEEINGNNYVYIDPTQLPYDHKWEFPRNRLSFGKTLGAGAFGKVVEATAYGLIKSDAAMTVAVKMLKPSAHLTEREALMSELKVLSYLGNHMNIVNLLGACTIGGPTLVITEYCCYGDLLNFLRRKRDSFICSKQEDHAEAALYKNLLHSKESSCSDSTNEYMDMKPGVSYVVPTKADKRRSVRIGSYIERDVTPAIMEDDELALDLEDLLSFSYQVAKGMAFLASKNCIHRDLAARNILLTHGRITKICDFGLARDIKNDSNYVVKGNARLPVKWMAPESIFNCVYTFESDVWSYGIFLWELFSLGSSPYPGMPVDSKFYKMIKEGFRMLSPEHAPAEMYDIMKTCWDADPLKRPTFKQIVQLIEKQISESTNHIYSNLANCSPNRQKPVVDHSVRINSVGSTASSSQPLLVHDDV
Series [20] has as its system RBL-2H3. Nature of the series: Inhibition of Akt phosphorylation in rat RBL-2H3 cells assessed as inhibition of Fc epsilonRI-mediated signal transduction by Western blot analysis. The class given is cell-based. The conditions noted are these: dose 8-200 nM.
The target of series [21] is Tyrosine-protein kinase Srms (Homo sapiens, UniProt Q9H3Y6). Nature of the series: Inhibition of human SRMS by radiometric scintillation counting analysis.
Tyrosine-protein kinase Srms, sequence (Q9H3Y6 whole entry): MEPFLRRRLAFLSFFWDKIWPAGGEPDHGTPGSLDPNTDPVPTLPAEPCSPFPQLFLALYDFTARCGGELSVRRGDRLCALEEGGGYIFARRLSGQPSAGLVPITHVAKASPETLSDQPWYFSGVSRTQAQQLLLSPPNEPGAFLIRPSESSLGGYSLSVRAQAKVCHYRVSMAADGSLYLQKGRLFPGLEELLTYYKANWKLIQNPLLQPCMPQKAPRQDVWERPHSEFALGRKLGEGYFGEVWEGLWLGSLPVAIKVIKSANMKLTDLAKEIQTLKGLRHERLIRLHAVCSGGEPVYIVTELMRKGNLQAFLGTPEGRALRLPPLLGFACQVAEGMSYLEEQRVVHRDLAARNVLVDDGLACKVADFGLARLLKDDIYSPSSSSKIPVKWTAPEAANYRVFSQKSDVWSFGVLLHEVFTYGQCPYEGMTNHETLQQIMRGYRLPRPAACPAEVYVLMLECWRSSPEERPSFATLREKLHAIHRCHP
The target of series [22] is T2, Tyrosine-protein kinase Tec (Homo sapiens). Nature of the series: Inhibition of human recombinant Tec (174 to end) at 500 nM by radiometric scintillation counting analysis relative to control.
The target in series [23] is Tyrosine-protein kinase Yes (Homo sapiens, UniProt P07947). The experiment in a line: Inhibition of human full length recombinant Yes at 5 nM by radiometric scintillation counting analysis relative to control.
Tyrosine-protein kinase Yes, sequence (P07947 2-543 limits assumed): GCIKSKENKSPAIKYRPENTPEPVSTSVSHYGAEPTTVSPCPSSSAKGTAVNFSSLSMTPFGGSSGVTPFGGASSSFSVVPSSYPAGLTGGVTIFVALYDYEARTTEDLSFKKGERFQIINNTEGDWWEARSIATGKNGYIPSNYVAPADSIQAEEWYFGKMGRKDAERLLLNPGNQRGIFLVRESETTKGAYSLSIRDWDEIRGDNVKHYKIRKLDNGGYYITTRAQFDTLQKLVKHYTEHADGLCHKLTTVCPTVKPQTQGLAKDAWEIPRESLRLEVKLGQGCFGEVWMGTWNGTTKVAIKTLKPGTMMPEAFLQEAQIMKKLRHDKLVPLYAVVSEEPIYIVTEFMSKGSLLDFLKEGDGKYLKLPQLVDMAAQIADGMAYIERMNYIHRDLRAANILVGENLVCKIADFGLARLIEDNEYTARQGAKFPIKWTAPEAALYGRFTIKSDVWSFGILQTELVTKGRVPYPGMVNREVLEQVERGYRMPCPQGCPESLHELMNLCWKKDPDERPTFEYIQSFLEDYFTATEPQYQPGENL

Broadly, the AUC(0-t) is the area under the concentration-time curve up to a stated or last time point. A lower AUC(0-t) goes with low exposure. The term IC50 denotes the point on the concentration scale where inhibition reaches its midpoint. Broadly, the MRT is a mean duration of stay, worked out from the concentration-time curve. The term inhibition denotes the relative decrease from the control value, in per cent. Broadly, the half-life is the time in which the quantity being followed falls by half. A lower half-life goes with rapid decline.

Structures are written as SMILES.

On to `Cc1ccc(C(=O)Nc2cc(C(F)(F)F)cc(C(F)(F)F)c2)cc1C#Cc1cc(-c2cnn(C)c2)cnc1N`, for which the area under the curve AUC(0-t) at 24 h in series [1] was determined as 2130 ng·h/mL. Moreover, in [2], the Activity entry is given as “Non-Toxic”. In addition, the IC50 in [3] was determined as 101 nM; in series [8] it was 126 nM; in [14] it was 187 nM; in series [21], 114 nM. Further, the MRT in [4] stood at 11.2 h; in series [9], 4.4 h. Moreover, the inhibition in [5] was 24%; in [6] it was 10%; with RBL-2H3 [7], “Dose-Dependent Effect”; in [15], “Dose-Dependent Effect”; in series [16], 1%; in series [17] it was -5%. Besides, the inhibition in series [18] was -1%; in series [19], 7%; in the series on RBL-2H3 [20], “Dose-Dependent Effect”; in [22], -3%. In addition, the inhibition at 0.2 µM in the series with RBL-2H3 [10] worked out at 162%. The half-life in series [11] is 6.9 h; in series [13], 5.57 h. Further, the Vd in series [12] stood at 4 L/kg.

With `Cc1ccc(C(=O)Nc2ccc(Cl)cc2Cl)cc1C#Cc1cc(-c2cnn(C)c2)cnc1N`, the IC50 is 29 nM in series [3], greater than 1000 nM in series [8], greater than 1000 nM in series [14] and greater than 1000 nM in series [21]. The inhibition in series [5] was 23%; in series [6], -10%; in series [16], -5%; in series [17], 4%; in series [18], -3%; in series [23] it was -7%. Also, the inhibition in [22] was -7%.

On to `Cc1ccc(C(=O)Nc2ccc(OC(F)(F)F)cc2)cc1C#Cc1cc(-c2cnn(C)c2)cnc1N`, for which, in the series with RBL-2H3 [10], the inhibition at 0.2 µM amounted to 122%. For the same molecule, the results for the inhibition in series [19] and in series [23] were 13% and 0%, respectively.
